{
  "source": "ChEMBL document CHEMBL3885881",
  "about": "“DrugMatrix”",
  "species_on_record": "Rattus norvegicus",
  "assay": "DrugMatrix - Regimen: Daily Repeat",
  "assay_type": "toxicity, organism-based, Sprague-Dawley",
  "design": "regimen Daily Repeat, gender Male, age 6-8 weeks",
  "conditions": "in vivo, po, 0 mg/kg, route oral GAVAGE, dose level Control, […]; for ABSOLUTE BASOPHIL / ABSOLUTE EOSINOPHIL / ABSOLUTE LYMPHOCYTE / ABSOLUTE MONOCYTE / ABSOLUTE SEGMENTED NEUTROPHIL / BASOPHIL / EOSINOPHIL / ERYTHROCYTE COUNT / HEMATOCRIT / HEMOGLOBIN / LEUKOCYTE COUNT / LYMPHOCYTE / MEAN CORPUSCULAR HEMOGLOBIN / MEAN CORPUSCULAR HEMOGLOBIN CONCENTRATION / MEAN CORPUSCULAR VOLUME / MONOCYTE / NEUTROPHIL / NUCLEATED RED BLOOD CELLS / PLATELET COUNT: tissue Blood; for ALANINE AMINOTRANSFERASE / ALKALINE PHOSPHATASE / ASPARTATE AMINOTRANSFERASE / BLOOD UREA NITROGEN / CARBON DIOXIDE / CHLORIDE / CHOLESTEROL / CREATINE PHOSPHOKINASE / CREATININE / GLUCOSE / LACTATE DEHYDROGENASE / LIPASE / PHOSPHORUS / POTASSIUM / SODIUM / TOTAL BILIRUBIN / TOTAL PROTEIN / URIC ACID: tissue Plasma",
  "data": [
    {"molecule": "CC(=O)[C@H]1CC[C@H]2[C@@H]3CCC4=CC(=O)CC[C@]4(C)[C@H]3CC[C@]12C", "note": "[PROGESTERONE]", "values": [
      {"measurement": "ABSOLUTE BASOPHIL", "setting": "72 h, time 3 day", "value": 0, "unit": "CELLS/uL"},
      {"measurement": "ABSOLUTE EOSINOPHIL", "setting": "72 h, time 3 day", "value": 41.83, "unit": "CELLS/uL"},
      {"measurement": "ABSOLUTE LYMPHOCYTE", "setting": "72 h, time 3 day", "value": 8545.5, "unit": "CELLS/uL"},
      {"measurement": "ABSOLUTE MONOCYTE", "setting": "72 h, time 3 day", "value": 240, "unit": "CELLS/uL"},
      {"measurement": "ABSOLUTE SEGMENTED NEUTROPHIL", "setting": "72 h, time 3 day", "value": 906, "unit": "CELLS/uL"},
      {"measurement": "BASOPHIL", "setting": "72 h, time 3 day", "value": 0, "unit": "%"},
      {"measurement": "EOSINOPHIL", "setting": "72 h, time 3 day", "value": 0.33, "unit": "%"},
      {"measurement": "ERYTHROCYTE COUNT", "setting": "72 h, time 3 day", "value": 5.6, "unit": "x10E6/uL"},
      {"measurement": "HEMATOCRIT", "setting": "72 h, time 3 day", "value": 35.4, "unit": "%"},
      {"measurement": "HEMOGLOBIN", "setting": "72 h, time 3 day", "value": 13.42, "unit": "G/DL"},
      {"measurement": "LEUKOCYTE COUNT", "setting": "72 h, time 3 day", "value": 9.73, "unit": "x10E3/uL"},
      {"measurement": "LYMPHOCYTE", "setting": "72 h, time 3 day", "value": 87.83, "unit": "%"},
      {"measurement": "MEAN CORPUSCULAR HEMOGLOBIN", "setting": "72 h, time 3 day", "value": 23.98, "unit": "pg"},
      {"measurement": "MEAN CORPUSCULAR HEMOGLOBIN CONCENTRATION", "setting": "72 h, time 3 day", "value": 37.92, "unit": "G/DL"},
      {"measurement": "MEAN CORPUSCULAR VOLUME", "setting": "72 h, time 3 day", "value": 63.3, "unit": "fL"},
      {"measurement": "MONOCYTE", "setting": "72 h, time 3 day", "value": 2.5, "unit": "%"},
      {"measurement": "NEUTROPHIL", "setting": "72 h, time 3 day", "value": 9.33, "unit": "%"},
      {"measurement": "NUCLEATED RED BLOOD CELLS", "setting": "72 h, time 3 day", "value": "0 /100WBC"},
      {"measurement": "PLATELET COUNT", "setting": "72 h, time 3 day", "value": 1032, "unit": "x10E3/uL"},
      {"measurement": "ALANINE AMINOTRANSFERASE", "setting": "72 h, time 3 day", "value": 72.83, "unit": "u/L"},
      {"measurement": "ALKALINE PHOSPHATASE", "setting": "72 h, time 3 day", "value": 322.83, "unit": "u/L"},
      {"measurement": "ASPARTATE AMINOTRANSFERASE", "setting": "72 h, time 3 day", "value": 102.67, "unit": "u/L"},
      {"measurement": "BLOOD UREA NITROGEN", "setting": "72 h, time 3 day", "value": 12, "unit": "mg/dL"},
      {"measurement": "CARBON DIOXIDE", "setting": "72 h, time 3 day", "value": 34.33, "unit": "mmol/L"},
      {"measurement": "CHLORIDE", "setting": "72 h, time 3 day", "value": 97.67, "unit": "MEQ/L"},
      {"measurement": "CHOLESTEROL", "setting": "72 h, time 3 day", "value": 82.5, "unit": "mg/dL"},
      {"measurement": "CREATINE PHOSPHOKINASE", "setting": "72 h, time 3 day", "value": 410.33, "unit": "u/L"},
      {"measurement": "CREATININE", "setting": "72 h, time 3 day", "value": 0.18, "unit": "mg/dL"},
      {"measurement": "GLUCOSE", "setting": "72 h, time 3 day", "value": 164.5, "unit": "mg/dL"},
      {"measurement": "LACTATE DEHYDROGENASE", "setting": "72 h, time 3 day", "value": 119.5, "unit": "u/L"},
      {"measurement": "LIPASE", "setting": "72 h, time 3 day", "value": 11.83, "unit": "u/L"},
      {"measurement": "PHOSPHORUS", "setting": "72 h, time 3 day", "value": 9.52, "unit": "mg/dL"},
      {"measurement": "POTASSIUM", "setting": "72 h, time 3 day", "value": 5.56, "unit": "MEQ/L"},
      {"measurement": "SODIUM", "setting": "72 h, time 3 day", "value": 142.48, "unit": "MEQ/L"},
      {"measurement": "TOTAL BILIRUBIN", "setting": "72 h, time 3 day", "value": 0.18, "unit": "mg/dL"},
      {"measurement": "TOTAL PROTEIN", "setting": "72 h, time 3 day", "value": 5.77, "unit": "G/DL"},
      {"measurement": "URIC ACID", "setting": "72 h, time 3 day", "value": 0.48, "unit": "mg/dL"},
      {"measurement": "ABSOLUTE BASOPHIL", "setting": "120 h, time 5 day", "value": 0, "unit": "CELLS/uL"},
      {"measurement": "ABSOLUTE EOSINOPHIL", "setting": "120 h, time 5 day", "value": 0, "unit": "CELLS/uL"},
      {"measurement": "ABSOLUTE LYMPHOCYTE", "setting": "120 h, time 5 day", "value": 9065, "unit": "CELLS/uL"},
      {"measurement": "ABSOLUTE MONOCYTE", "setting": "120 h, time 5 day", "value": 341.33, "unit": "CELLS/uL"},
      {"measurement": "ABSOLUTE SEGMENTED NEUTROPHIL", "setting": "120 h, time 5 day", "value": 527, "unit": "CELLS/uL"},
      {"measurement": "BASOPHIL", "setting": "120 h, time 5 day", "value": 0, "unit": "%"},
      {"measurement": "EOSINOPHIL", "setting": "120 h, time 5 day", "value": 0, "unit": "%"},
      {"measurement": "ERYTHROCYTE COUNT", "setting": "120 h, time 5 day", "value": 5.25, "unit": "x10E6/uL"},
      {"measurement": "HEMATOCRIT", "setting": "120 h, time 5 day", "value": 34.08, "unit": "%"},
      {"measurement": "HEMOGLOBIN", "setting": "120 h, time 5 day", "value": 13.5, "unit": "G/DL"},
      {"measurement": "LEUKOCYTE COUNT", "setting": "120 h, time 5 day", "value": 9.93, "unit": "x10E3/uL"},
      {"measurement": "LYMPHOCYTE", "setting": "120 h, time 5 day", "value": 91.17, "unit": "%"},
      {"measurement": "MEAN CORPUSCULAR HEMOGLOBIN", "setting": "120 h, time 5 day", "value": 25.7, "unit": "pg"},
      {"measurement": "MEAN CORPUSCULAR HEMOGLOBIN CONCENTRATION", "setting": "120 h, time 5 day", "value": 39.62, "unit": "G/DL"},
      {"measurement": "MEAN CORPUSCULAR VOLUME", "setting": "120 h, time 5 day", "value": 64.93, "unit": "fL"},
      {"measurement": "MONOCYTE", "setting": "120 h, time 5 day", "value": 3.33, "unit": "%"},
      {"measurement": "NEUTROPHIL", "setting": "120 h, time 5 day", "value": 5.5, "unit": "%"},
      {"measurement": "NUCLEATED RED BLOOD CELLS", "setting": "120 h, time 5 day", "value": "0 /100WBC"},
      {"measurement": "PLATELET COUNT", "setting": "120 h, time 5 day", "value": 1077.5, "unit": "x10E3/uL"},
      {"measurement": "ALANINE AMINOTRANSFERASE", "setting": "120 h, time 5 day", "value": 57.83, "unit": "u/L"},
      {"measurement": "ALKALINE PHOSPHATASE", "setting": "120 h, time 5 day", "value": 319.17, "unit": "u/L"},
      {"measurement": "ASPARTATE AMINOTRANSFERASE", "setting": "120 h, time 5 day", "value": 83.33, "unit": "u/L"},
      {"measurement": "BLOOD UREA NITROGEN", "setting": "120 h, time 5 day", "value": 13.67, "unit": "mg/dL"},
      {"measurement": "CARBON DIOXIDE", "setting": "120 h, time 5 day", "value": 30.83, "unit": "mmol/L"},
      {"measurement": "CHLORIDE", "setting": "120 h, time 5 day", "value": 98.33, "unit": "MEQ/L"},
      {"measurement": "CHOLESTEROL", "setting": "120 h, time 5 day", "value": 64.83, "unit": "mg/dL"},
      {"measurement": "CREATINE PHOSPHOKINASE", "setting": "120 h, time 5 day", "value": 263.67, "unit": "u/L"},
      {"measurement": "CREATININE", "setting": "120 h, time 5 day", "value": 0.2, "unit": "mg/dL"},
      {"measurement": "GLUCOSE", "setting": "120 h, time 5 day", "value": 182.83, "unit": "mg/dL"},
      {"measurement": "LACTATE DEHYDROGENASE", "setting": "120 h, time 5 day", "value": 124, "unit": "u/L"},
      {"measurement": "LIPASE", "setting": "120 h, time 5 day", "value": 10.5, "unit": "u/L"},
      {"measurement": "PHOSPHORUS", "setting": "120 h, time 5 day", "value": 10, "unit": "mg/dL"},
      {"measurement": "POTASSIUM", "setting": "120 h, time 5 day", "value": 5.78, "unit": "MEQ/L"},
      {"measurement": "SODIUM", "setting": "120 h, time 5 day", "value": 142.48, "unit": "MEQ/L"},
      {"measurement": "TOTAL BILIRUBIN", "setting": "120 h, time 5 day", "value": 0.2, "unit": "mg/dL"},
      {"measurement": "TOTAL PROTEIN", "setting": "120 h, time 5 day", "value": 6, "unit": "G/DL"},
      {"measurement": "URIC ACID", "setting": "120 h, time 5 day", "value": 0.7, "unit": "mg/dL"}
    ]}
  ]
}
